Consider 7 compounds from ChEMBL document CHEMBL3045557, “A new benzil derivative from Derris scandens: Structure-insecticidal activity study” (2010).

Molecules are shown by their SMILES. Activity calls are given as the source filed them. The rule behind the calls is not given here.

The subject of experiment [1] is Achaea janata. In words: Insecticidal activity against Achaea janata assessed as pupal mortality at 4 ug/larva administered through topical application. Format: functional.
Experiment [2] has as its system Achaea janata. The experiment is described as follows: Insecticidal activity against Achaea janata assessed as pupal weight at 2 ug/larva administered through topical application (reference value: 696.4 +/- 2.6 mg). The format is functional.
For experiment [3], the system named is Achaea janata. The experiment is described as follows: Insecticidal activity against Achaea janata assessed as pupal weight at 4 ug/larva administered through topical application (reference value: 696.4 +/- 2.6 mg). Format: functional.
The subject of experiment [4] is Achaea janata. The experiment is described as follows: Insecticidal activity against Achaea janata assessed as pupal duration at 2 ug/larva administered through topical application (reference value: 10.3 +/- 0.1 days). Format: functional.
The subject of experiment [5] is Achaea janata. The experiment is described as follows: Insecticidal activity against Achaea janata assessed as pupal duration at 4 ug/larva administered through topical application (reference value: 10.3 +/- 0.1 days). Format: functional.
Experiment [6] concerns Achaea janata. In words: Insecticidal activity against Achaea janata assessed as larval mortality at 4 ug/larva administered through topical application. The format is functional.
The subject of experiment [7] is Achaea janata. The experiment is described as follows: Insecticidal activity against Achaea janata assessed as larval mortality at 2 ug/larva administered through topical application. The format is functional.
Experiment [8] concerns Achaea janata. The experiment is described as follows: Insecticidal activity against Achaea janata assessed as larval duration at 4 ug/larva administered through topical application (reference value: 7.3 +/- 0.1 days). Format: functional.
Experiment [9] has as its system Achaea janata. The experiment is described as follows: Insecticidal activity against Achaea janata assessed as larval duration at 2 ug/larva administered through topical application (reference value: 7.3 +/- 0.1 days). Format: functional.
The test system of experiment [10] is Achaea janata. In words: Toxicity against Achaea janata at 10 ug/cm2 after 24 hr by leaf disk method. The format is functional.
In experiment [11] the test system is Achaea janata. The experiment is described as follows: Toxicity against Achaea janata after 24 hr by leaf disk method. Format: functional.
The test system of experiment [12] is Achaea janata. In words: Antifeedant activity against Achaea janata at 1 ug/cm2 by conventional no-choice disk method. Format: functional, organism-based.
In experiment [13] the test system is Achaea janata. In words: Antifeedant activity against Achaea janata at 2 ug/cm2 by conventional no-choice disk method. The format is functional, organism-based.
The test system of experiment [14] is Achaea janata. The experiment is described as follows: Antifeedant activity against Achaea janata by conventional no-choice disk method. Format: functional.
For experiment [15], the system named is Achaea janata. The experiment is described as follows: Antifeedant activity against Achaea janata at 10 ug/cm2 by conventional no-choice disk method. Format: functional.
Experiment [16] concerns Achaea janata. In words: Insecticidal activity against Achaea janata assessed as adult emergence at 2 ug/larva administered through topical application (reference value: 98.8 +/- 0.5 %). Format: functional.
Experiment [17] deals with Achaea janata. In words: Insecticidal activity against Achaea janata assessed as adult emergence at 4 ug/larva administered through topical application (reference value: 98.8 +/- 0.5 %). The format is functional.
Experiment [18] has as its system Achaea janata. The experiment is described as follows: Insecticidal activity against Achaea janata assessed as adult deformity at 2 ug/larva administered through topical application. The format is functional.
Experiment [19] concerns Achaea janata. The experiment is described as follows: Insecticidal activity against Achaea janata assessed as adult deformity at 4 ug/larva administered through topical application. Format: functional.
Experiment [20] deals with Achaea janata. In words: Insecticidal activity against Achaea janata assessed as pupal mortality at 2 ug/larva administered through topical application. The format is functional.

As a reminder, the mortality is the share of the test organisms that died. In the case of `CC(C)=CCc1cc(-c2coc3cc(O)c(CC=C(C)C)c(O)c3c2=O)ccc1O` [LUPALBIGENIN], the mortality with Achaea janata [1] is reported as 32.2%; with Achaea janata [6], 18.8%; in the experiment on Achaea janata [7] it was 0%; in the experiment with Achaea janata [20], 26.4%. In addition, the Activity in the experiment on Achaea janata [2] is given as 612 mg; in the experiment with Achaea janata [3], 587 mg; with Achaea janata [10] it was 0%; in the experiment with Achaea janata [16], 62.7%; in the experiment on Achaea janata [17], 32.8%; with Achaea janata [18], 9.5%. Also, the Activity with Achaea janata [19] is recorded as 9.1%. The Time in the experiment on Achaea janata [4] was 11.4 days; in the experiment on Achaea janata [5], 12.9 days; with Achaea janata [8], 9.7 days; in the experiment on Achaea janata [9] it was 7.7 days. For the same compound, the LD50 entry in the experiment on Achaea janata [11] was “inactive”. Besides, the AFI result in the experiment on Achaea janata [12] and with Achaea janata [13] was “inactive” in each case. The ED50 entry with Achaea janata [14] is “inactive”. Further, the AFI with Achaea janata [15] is 22.4%.

`CC(C)=CCc1c2c(c3occ(-c4ccc(O)cc4)c(=O)c3c1O)C=CC(C)(C)O2` [OSAJIN]: the mortality in the experiment on Achaea janata [1] turned out to be 45.6%; in the experiment on Achaea janata [6], 33.4%; with Achaea janata [7], 12.2%; with Achaea janata [20], 47.8%. Besides, the Activity is listed as 584.8 mg with Achaea janata [2]; 504.8 mg with Achaea janata [3]; 98.2% in the experiment on Achaea janata [10]; 18% in the experiment on Achaea janata [16]; 2.9% with Achaea janata [17]; 10% in the experiment with Achaea janata [18]. Moreover, the Activity with Achaea janata [19] was found to be 15.7%. The Time worked out at 13.8 days in the experiment with Achaea janata [4], 15.5 days in the experiment on Achaea janata [5], 11.2 days in the experiment with Achaea janata [8] and 10.4 days with Achaea janata [9]. In the experiment on Achaea janata [11], this compound had an LD50 of 3.54 microg/cm2. The AFI result with Achaea janata [12] and in the experiment with Achaea janata [13] was “inactive” each time. In the experiment on Achaea janata [14], this compound returned an ED50 of 3.18 microg/cm2. The compound further registered an AFI with Achaea janata [15] of 100%.

With `COc1ccc(-c2c(O)c3c(OC)c(CC=C(C)C)c4c(c3oc2=O)C=CC(C)(C)O4)cc1` [SCANDENIN A], the mortality in the experiment on Achaea janata [1] came to 32.8%; in the experiment on Achaea janata [6], 15.2%; in the experiment on Achaea janata [7], 11.6%; in the experiment on Achaea janata [20] it was 19.8%. In addition, the Activity is recorded as 601.2 mg with Achaea janata [2]; 605 mg with Achaea janata [3]; 0% in the experiment with Achaea janata [10]; 71.5% in the experiment with Achaea janata [16]; 31.5% with Achaea janata [17]; 0% in the experiment with Achaea janata [18]. Also, in the experiment on Achaea janata [19], the Activity is listed as 6.6%. Further, the Time is 10.5 days with Achaea janata [4], 10.5 days in the experiment on Achaea janata [5], 11.1 days in the experiment with Achaea janata [8] and 9.3 days in the experiment on Achaea janata [9]. Moreover, the LD50 entry in the experiment on Achaea janata [11] was “inactive”. Moreover, the AFI entry with Achaea janata [12] and in the experiment on Achaea janata [13] was “inactive” in each case. Also, the ED50 result in the experiment with Achaea janata [14] is “inactive”. The compound also returned an AFI in the experiment on Achaea janata [15] of 4%.

On to `COc1c(CC=C(C)C)c2c(c3oc(=O)c(-c4ccc(O)cc4)c(O)c13)C=CC(C)(C)O2` [SCANDENIN], for which the mortality came to 24.8% with Achaea janata [1], 42.6% in the experiment on Achaea janata [6], 0% in the experiment with Achaea janata [7] and 13.5% in the experiment on Achaea janata [20]. Besides, the Activity stood at 550.8 mg with Achaea janata [2]; 514.2 mg in the experiment on Achaea janata [3]; 86.4% in the experiment with Achaea janata [10]; 75.3% with Achaea janata [16]; 18.6% in the experiment with Achaea janata [17]; 0% with Achaea janata [18]. Further, the Activity with Achaea janata [19] is on record as 10.9%. Also, the Time came to 11.2 days in the experiment on Achaea janata [4], 11.3 days with Achaea janata [5], 10.8 days in the experiment with Achaea janata [8] and 8.2 days in the experiment with Achaea janata [9]. The same compound showed an LD50 with Achaea janata [11] of 5.28 microg/cm2. Further, the AFI result with Achaea janata [12] and with Achaea janata [13] was “inactive” in each case. Further, the ED50 with Achaea janata [14] is on record as 3.85 microg/cm2. Also, in the experiment with Achaea janata [15], the AFI amounted to 96.5%.

Turning to `COc1c(CC=C(C)C)c2c(c3occ(-c4ccc(O)cc4)c(=O)c13)C=CC(C)(C)O2` [SCANDINONE], the mortality with Achaea janata [1] turned out to be 23.4%; in the experiment with Achaea janata [6] it was 17%; in the experiment on Achaea janata [7], 6.8%; in the experiment on Achaea janata [20], 13.6%. The Activity in the experiment with Achaea janata [2] was 621.8 mg; with Achaea janata [3] it was 592 mg; in the experiment on Achaea janata [10], 14.6%; in the experiment with Achaea janata [16], 65.3%; in the experiment on Achaea janata [17], 34.2%; in the experiment with Achaea janata [18] it was 3.5%. In addition, the Activity in the experiment on Achaea janata [19] turned out to be 5.4%. The Time was found to be 11.8 days in the experiment with Achaea janata [4], 12.5 days in the experiment with Achaea janata [5], 10.5 days in the experiment with Achaea janata [8] and 8.2 days with Achaea janata [9]. For the same compound, the LD50 entry in the experiment on Achaea janata [11] was “inactive”. Moreover, the AFI result with Achaea janata [12] and with Achaea janata [13] was “inactive” throughout. Further, the ED50 result in the experiment on Achaea janata [14] is “inactive”. Besides, in the experiment with Achaea janata [15], the AFI was found to be 1.3%.

`C[C@@H]1O[C@@H](OC[C@H]2O[C@@H](Oc3cc(O)c4c(=O)c(-c5ccc(O)cc5)coc4c3)[C@H](O)[C@@H](O)[C@@H]2O)[C@H](O)[C@H](O)[C@H]1O` [SPHAEROBIOSIDE]: the mortality in the experiment on Achaea janata [1] came out at 41.2%; in the experiment with Achaea janata [6] it was 31.8%; with Achaea janata [7] it was 13%; in the experiment with Achaea janata [20], 36%. The Activity in the experiment on Achaea janata [2] was found to be 508.6 mg; in the experiment with Achaea janata [3], 504.8 mg; in the experiment on Achaea janata [10], 97.8%; in the experiment on Achaea janata [16] it was 32.7%; in the experiment on Achaea janata [17], 7.5%; in the experiment with Achaea janata [18], 0%. Also, the Activity in the experiment with Achaea janata [19] stood at 9.5%. Besides, the Time amounted to 13.3 days with Achaea janata [4], 14.4 days with Achaea janata [5], 11.3 days in the experiment on Achaea janata [8] and 10.8 days with Achaea janata [9]. For the same compound, in the experiment on Achaea janata [11], the LD50 is reported as 3.87 microg/cm2. Besides, the AFI result in the experiment with Achaea janata [12] and with Achaea janata [13] was “inactive” in each case. Further, the ED50 with Achaea janata [14] amounted to 3.37 microg/cm2. Further, the AFI with Achaea janata [15] came to 96.2%.

As for `CC(C)=CCc1c2c(c(O)c3c(=O)c(-c4ccc(O)cc4)coc13)C=CC(C)(C)O2` [WARANGALONE], the mortality in the experiment on Achaea janata [1] was determined as 27.6%; with Achaea janata [6], 0%; in the experiment on Achaea janata [7], 0%; with Achaea janata [20], 17.8%. For the same compound, the Activity turned out to be 633.2 mg in the experiment with Achaea janata [2]; 572.6 mg with Achaea janata [3]; 6.8% with Achaea janata [10]; 63.6% in the experiment on Achaea janata [16]; 50.3% with Achaea janata [17]; 5.5% with Achaea janata [18]. In addition, the Activity in the experiment with Achaea janata [19] amounted to 11.8%. The Time in the experiment with Achaea janata [4] turned out to be 11.7 days; in the experiment on Achaea janata [5], 11.9 days; in the experiment on Achaea janata [8] it was 9.8 days; in the experiment with Achaea janata [9], 9.4 days. For the same compound, in the experiment with Achaea janata [11], the LD50 entry is “inactive”. Further, the AFI result with Achaea janata [12] and with Achaea janata [13] was “inactive” throughout. For the same compound, the ED50 entry with Achaea janata [14] is “inactive”. This compound also yielded an AFI with Achaea janata [15] of 6.2%.
